# Assay results reported in patent US5635379A, “D-2-alkyl-tryptophan and peptides containing same” (Deghenghi; Romano, priority 1990, dated 1997).
# Columns and labels:
# [1] = Stability of D-Trp and D-2-methyl-Trp in 1% solutions, peak area by HPLC; type: physicochemical; settings: pH 2.2 citrate buffer, dark, helium (FIG. 1) and pH 5.4 acetate buffer, oxygen, constant light (FIG. 2)
# plasma testosterone = type: in vivo, Beagle dogs
# Excerpt: After an initial flare-up, plasma testosterone fell below castration levels after approximately 10 days, and was maintained for approximately 180 days.
# [2] = test system: pituitary cell monolayers; assay: GH-releasing activity in pituitary cell culture (monolayers); type: cell-based, Sprague Dawley rats; settings: for GH in medium: 2 hours incubation
# Procedure: (§1) Male Sprague Dawley rats (Charles River, Calco, Italy) of 2-3 months of age were used. Rats were housed at 22 +2° C., with lighting cycle of 14 h light: 10 h dark (lights on from 06.00 to 20.00 h), at least 10 days before starting the experiments. A standard dry diet and water were available ad libitum.
# Pituitary tissue used for cell dissociation included only the anterior lobe. Briefly, pituitary glands were collected in sterile F-10 medium and after cutting into small fragments incubated twice (30 minutes each) at 37° C. in F-10 medium containing 6% fetal calf serum and collagenase (2.5 mg/ml) (Boehringer, Mannheim GmbH, Germany). Fragments were then washed in Dulbecco's PBS, Ca^2+ and Mg^2+ free medium and mechanically dissociated. Single cell suspension was planted onto 24-well (2×10^5 cells/well) culture plates. The cells were incubated in F-10 medium supplemented with 10% horse serum, 4% fetal calf serum and gentamycin (25 μg/ml), in a humidified atmosphere of 5% CO2 and 95% air at 37° C.
# After 3 days, the medium was removed and the cells washed twice with serum free F-10, then incubated with 1 ml of F-10 containing 0.1% BSA only, or with added various concentrations of synthetic peptides.
# After incubation for 2 h at 37° C., media were collected and stored frozen at -20° C. until assayed for measurement of GH content.
# (§2) Medium and plasma GH was measured by radioimmunoassay using materials supplied by the NIADDK Bethesda, Md. Values were expressed in term of NIASSK-rat-GH-RP-2 standard (potency 2 IU/ml), as ng/ml of medium or plasma.
# (§3) The minimum detectable value of rat was 1.0 ng/ml; intra-assay variability was 6%. To avoid inter-assay variation, samples from each experiment were assayed simultaneously.
# GH release [3] = assay: GH-releasing activity i.v. in male rats anesthetized with ketamine and xilazine; type: in vivo, Sprague Dawley rats
# Procedure: as §1
# (§4) Between 09.00-10.00 h rats were anesthetized with ketamine (58 mg/kg, Inoketam, VIRBAC, Milano) and xilazine (12 mg/kg, Rompun, Bayer, Milano). Thirty minutes later, a blood sample ([…]) was withdrawn from the exposed jugular vein, peptides were injected intravenously or subcutaneously, and further blood samples were collected 10, 20 and 30 minutes later.
# as §2, §3
# GH release [4] = assay: GH-releasing activity s.c. in male rats anesthetized with ketamine and xilazine; type: in vivo, Sprague Dawley rats
# Procedure: as §1, §4, §2, §3
# GH release [5] = assay: GH release in pentobarbital-anesthetized rats, s.c.; type: in vivo, Sprague Dawley rats
# Procedure: Male Sprague Dawley rats weighing 225-250 g were divided in groups of five animals each. Rats were anesthetized with Nembutal injected intraperiteonally at 50 mg/kg, fifteen minutes prior to the first blood withdrawal taken over heparin by cardiac puncture (for determination of basal GH).
# Subcutaneous injections of either HEXARELIN or GHRP-6 were given immediately after the first blood collection, and additional blood samples were collected 15 and 40 minutes later.
# Measurement of rat GH was performed by a standard double antibody radioimmunoassay with reagents supplied by the National Pituitary Agency and the National Institute of Arthritis, Diabetes, and Digestive and Kidney Diseases. The standards used were NIADDK-NIH-rGH-RP-2. Statistical data were obtained with the Student's t Test at a significance level of 5%.
# [6] = Acute cardiovascular toxicity in the rat, single i.v. dose, mortality; type: in vivo; settings: observed up to 4 hours
# Procedure: These two peptides were also tested for acute cardiovascular toxicity in the rat.
# Dosages were calculated on the basis of the declared peptide content in each product, as specified below:
# A single dose of HEXARELIN or GHRP-6 was administered to rats in different calendar dates in such a way that each group/dose should be treated in two subsequent days.
# For each compound, appropriate amounts of solutions in 0.9% NaCl for injection were prepared just before treatment at the suitable concentrations. The solutions were sterilized by filtration (Millipore filter, pore size 0.22 μm). Owing to the type of the study (acute study) in which formulates were administered just after preparation, stability checks were not performed. Concentration checks were also not performed. The volume of solution injected was maintained constant at 1 ml/Kg.
# The intravenous injections were done as a single dose in one vein of the tail with an appropriately gauged sterile, disposable, plastic syringe. The injection rate was about 0.1 ml/sec.
# Periodical observations were made up to 4 hours after treatment. Abnormality and mortality were recorded. Body weight was recorded once during pre-trial and on the administration day to calculate the volumes to be injected.
# GH release [7] = assay: GH response in conscious, freely-moving rats after antiserum pretreatment and i.v. peptide; type: in vivo; settings: i.v. 25 μg/kg peptide, pooled over antiserum pretreatments
# Procedure: Sixty male rats were prepared with indwelling venous catheters under ether anesthesia three days before experimentation. On the day of experimentation, all animals were given an iv heparin injection (100 IU; 0630 h). At 0700 h, animals were treated with 0.5 ml of either normal serum (control-as), somatostatin antiserum (somatostatin-as; 0.25 ml+0.25 ml saline), growth hormone-releasing hormone antiserum (GHRH-as; 0.25 ml+0.25 ml saline), or both somatostatin antiserum and growth hormone-releasing hormone antiserum (0.25 ml somatostatin-as+0.25 ml GHRH-as). Blood sampling began […] after antiserum pretreatment, with blood samples collected every 20 minutes for three hours. After the 180 minute sample (1100 h), animals were treated iv with 25 μg/kg of either Hexarelin or GHRP-6. Blood samples were then collected at 5, 10, 15, 20 30, 40, and 60 minutes after peptide treatment. All samples were centrifuged immediately and the plasma frozen until assayed. The peak GH response to Hexarelin and GHRP-6 as well as the area under the response curves (AUCs) for the thirty minutes following peptide injection were calculated. Data were subjected to repeated measures analysis of variance and are expressed as mean ±SEM.
# [8] = PLGA implant rods, 20 or 25% loading (7 or 10 mg), subcutaneous
compound,measurement,setting,value
"Cc1[nH]c2ccccc2c1C[C@@H](N)C(=O)O [Example 1, 2-methyl-D-tryptophan]",time the compound is stable in solution (HPLC peak area),[1],≥ 60 days
Pyro-Glu-His-Ser-Tyr-D-2-alkyl-Trp-Leu-Arg-Pro-NHCH2 CH3 [Example 3],time plasma testosterone was maintained below castration levels,plasma testosterone; [8],approximately 180 days
same,time until plasma testosterone fell below castration levels,plasma testosterone; [8],approximately 10 days
same,response to stimulation by i.v. administration of the peptide,plasma testosterone; day 145 after implant,absence of response
same,clinical side effects,"plasma testosterone; dog, in vivo, sc",No clinical side effects were observed
"N[C@H](Cc1c[nH]c2ccccc12)C(=O)O [D-Trp, D-Tryptophan, reference compound]",time the compound is stable in solution (HPLC peak area),[1],about 20 days
GHRP-6 [reference compound],GH in medium,[2]; 10^-6 M,510.0 ± 12.0 ng/well
same,GH in medium,[2]; 10^-7 M,526.5 ± 19.0 ng/well
same,GH in medium,[2]; 10^-8 M,544.2 ± 23.9 ng/well
same,GH secretion versus basal,"[2]; 10^-8 to 10^-6 M, two hours",stimulation of GH secretion over basal secretion
same,plasma GH,"GH release [3]; i.v. 150 μg/kg, 10 min",394.0 ± 31.0 ng/mL
same,plasma GH,"GH release [3]; i.v. 150 μg/kg, 20 min",139.3 ± 10.2 ng/mL
same,plasma GH,"GH release [3]; i.v. 150 μg/kg, 30 min",42.5 ± 4.5 ng/mL
same,plasma GH,"GH release [3]; i.v. 150 μg/kg, time 0 min (before injection)",30.2 ± 7.8 ng/mL
same,plasma GH,"GH release [3]; i.v. 300 μg/kg, 10 min",413.6 ± 21.5 ng/mL
same,plasma GH,"GH release [3]; i.v. 300 μg/kg, 20 min",162.7 ± 22.1 ng/mL
same,plasma GH,"GH release [3]; i.v. 300 μg/kg, 30 min",38.2 ± 7.7 ng/mL
same,plasma GH,"GH release [3]; i.v. 300 μg/kg, time 0 min (before injection)",21.9 ± 4.4 ng/mL
same,plasma GH,"GH release [3]; i.v. 600 μg/kg, 10 min",542.0 ± 38.0 ng/mL
same,plasma GH,"GH release [3]; i.v. 600 μg/kg, 20 min",195.5 ± 11.0 ng/mL
same,plasma GH,"GH release [3]; i.v. 600 μg/kg, time 0 min (before injection)",21.2 ± 6.1 ng/mL
same,plasma GH,"GH release [4]; s.c. 150 μg/kg, 10 min",63.1 ± 11.0 ng/mL
same,plasma GH,"GH release [4]; s.c. 150 μg/kg, 20 min",110.4 ± 18.0 ng/mL
same,plasma GH,"GH release [4]; s.c. 150 μg/kg, 30 min",77.2 ± 14.0 ng/mL
same,plasma GH,"GH release [4]; s.c. 150 μg/kg, time 0 min (before injection)",20.0 ± 5.0 ng/mL
same,plasma GH,"GH release [4]; s.c. 300 μg/kg, 10 min",63.9 ± 12.8 ng/mL
same,plasma GH,"GH release [4]; s.c. 300 μg/kg, 20 min",123.4 ± 14.6 ng/mL
same,plasma GH,"GH release [4]; s.c. 300 μg/kg, 30 min",87.7 ± 11.8 ng/mL
same,plasma GH,"GH release [4]; s.c. 300 μg/kg, time 0 min (before injection)",20.0 ± 6.0 ng/mL
same,plasma GH,"GH release [4]; s.c. 600 μg/kg, 10 min",93.1 ± 22.3 ng/mL
same,plasma GH,"GH release [4]; s.c. 600 μg/kg, 20 min",167.1 ± 14.7 ng/mL
same,plasma GH,"GH release [4]; s.c. 600 μg/kg, 30 min",107.8 ± 9.5 ng/mL
same,plasma GH,"GH release [4]; s.c. 600 μg/kg, time 0 min (before injection)",18.0 ± 4.0 ng/mL
same,POST-DRUG PLASMA GH,"GH release [5]; s.c. 25 μg/kg, 0 min (basal)",41 ± 16 ng/mL
same,POST-DRUG PLASMA GH,"GH release [5]; s.c. 25 μg/kg, 15 min",222 ± 95 ng/mL
same,POST-DRUG PLASMA GH,"GH release [5]; s.c. 25 μg/kg, 40 min",110 ± 47 ng/mL
same,POST-DRUG PLASMA GH,"GH release [5]; s.c. 50 μg/kg, 0 min (basal)",57 ± 39 ng/mL
same,POST-DRUG PLASMA GH,"GH release [5]; s.c. 50 μg/kg, 15 min",262 ± 58 ng/mL
same,POST-DRUG PLASMA GH,"GH release [5]; s.c. 50 μg/kg, 40 min",97 ± 44 ng/mL
same,Dead rats/Total N° of rats per group,[6]; single i.v. dose 2.5 mg/kg,0/6
same,Dead rats/Total N° of rats per group,[6]; single i.v. dose 5.0 mg/kg,1/6
same,Dead rats/Total N° of rats per group,[6]; single i.v. dose 7.5 mg/kg,2/6
same,Mean GH,GH release [7],131 ± 13 ng/mL
same,Peak GH,GH release [7],293 ± 41 ng/mL
same,GH AUC,GH release [7]; thirty minutes following injection,4220 ± 665 ng/ml/30 min
